Where two headings read alike, the source gives them in different places.

This test addresses T1, GAβ-dependent amyloid fibril formation (Human Aβ1-40 + GM1-containing liposome) (Homo sapiens, UniProt P05067).
T1 construct: Human Aβ1-40 (cat. #4307-v, prepared by Peptide Institute); purchased Peptide Institute 4307-v
The test is described as follows: Thioflavin T (ThT) assay of GAβ-dependent amyloid fibril formation (Aβ1-40 with GM1-containing liposome). Type of test: biochemical. The gist of the method: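 Human Aβ1-40 (75 μM stock) pre-incubated 10 min at room temperature with compound (75 or 15 μM solution), then GM1-containing cholesterol/sphingomyelin liposome added and incubated 37° C, 18 hours. Fibrils quantified by ThT fluorescence (ex 430/em 490 nm, pH 8.5 glycine buffer); inhibition as ratio to compound-free control.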

Setting [1] is: inhibition rate against amyloid fibril formation, final concentration of the compound 25 μM, read-out: Inhibitory activity ABC evaluation.
Where [2] appears, read: read-out: ThT Inhibitory activity (% inhibition).
The mark [3] stands for this setting: @25 μM, read-out: ThT Inhibitory activity (% inhibition).
Where [4] appears, read: final concentration of the compound 25 μM, ratio of ThT fluorescence intensity with/without compound, 37° C. for 18 hours, read-out: inhibition rate against amyloid fibril formation (inhibitory activity on a scale of A to C).

T1 sequence (P05067 672-711 limits assumed): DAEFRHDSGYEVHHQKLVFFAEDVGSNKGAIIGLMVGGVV

On to `O=C(N[C@@H](CO)c1nnc(-c2ccc(O)c(F)c2)o1)c1ccc(Cl)cc1` [Compound 120, (S)-4-chloro-N-(1-(5-(3-fluoro-4-hydroxyphenyl)-1,3,4-oxadiazol-2-yl)-2-hydroxy-ethyl)benzamide], for which the inhibition at 25 µM under setting [1] was under 40%.

Regarding `O=C1CC(c2nc(-c3ccc(OC(F)(F)F)cc3)ns2)CN1c1ccc(Cl)cc1` (stereo not drawn) [Compound 121, 1-(4-chlorophenyl)-4-{3-[4-(trifluoromethoxy)phenyl]-1,2,4-thiadiazol-5-yl}pyrrolidin-2-one], the inhibition at 25 µM under setting [1] lay in the range of 40 to 80%.

`O=C1CC(c2nnn(-c3ccc(OC(F)(F)F)cc3)n2)CN1c1ccc(Cl)cc1` (stereo not drawn) [Compound 122, 1-(4-chlorophenyl)-4-{2-[4-(trifluoromethoxy)phenyl]-2H-tetrazol-5-yl}pyrrolidin-2-one]: the inhibition at 25 µM under setting [1] was under 40%.

For `O=C1CC(c2nnc(-c3ccc(OC(F)(F)F)cc3)[nH]2)CN1c1ccc(Cl)cc1` (stereo not drawn) [Compound 123, 1-(4-chlorophenyl)-4-{5-[4-(trifluoromethoxy)phenyl]-4H-1,2,4-triazol-3-yl}pyrrolidin-2-one], the inhibition at 25 µM under setting [1] is under 40%.

As for `O=C1CC(c2ncc(-c3ccc(OC(F)(F)F)cc3)[nH]2)CN1c1ccc(Cl)cc1` (stereo not drawn) [Compound 124, 1-(4-chlorophenyl)-4-{5-[4-(trifluoromethoxy)phenyl]-1H-imidazol-2-yl}pyrrolidin-2-one], the inhibition at 25 µM under setting [1] is under 40%.

With `COc1ccc(-c2noc([C@H](CO)NC(=O)c3ccc(Cl)cc3)n2)cc1` [Compound 125, (S)-4-chloro-N-(2-hydroxy-1-(3-(4-methoxyphenyl)-1,2,4-oxadiazol-5-yl)ethyl)benzamide], the inhibition at 5 µM under setting [2] is 59%. Further, the inhibition at 25 µM is, setting by setting: under setting [3], 88%; under setting [1], over 80%.

Regarding `O=C(N[C@@H](CO)c1noc(-c2ccc(OC(F)(F)F)cc2)n1)c1ccc(Cl)cc1` [Compound 126, (R)-4-chloro-N-(2-hydroxy-1-(5-(4-(trifluoromethoxy)phenyl)-1,2,4-oxadiazol-3-yl)ethyl)benzamide], under setting [1], the inhibition at 25 µM fell in the range of 40 to 80%.

For the molecule `C[C@H](O)[C@H](NC(=O)c1ccc(Cl)cc1)c1nc(-c2ccc(OC(F)(F)F)cc2)no1` [Compound 127, 4-chloro-N-((1S,2S)-2-hydroxy-1-(3-(4-(trifluoromethoxy)phenyl)-1,2,4-oxa-diazol-5-yl)propyl) benzamide], the inhibition at 25 µM under setting [1] fell in the range of 40 to 80%.

In the case of `O=C(N[C@@H](CO)c1noc(-c2ccc(OC(F)(F)F)cc2)n1)c1ccccc1` [Compound 128, (R)-N-(2-hydroxy-1-(5-(4-(trifluoro-methoxy)phenyl)-1,2,4-oxadiazol-3-yl)ethyl)benzamide], under setting [1], the inhibition at 25 µM lay within 40 to 80%.

For the molecule `O=C(N[C@@H](CO)c1nc(-c2ccc(C(F)(F)F)cc2)no1)c1ccc(Cl)cc1` [Compound 129, (S)-4-chloro-N-(2-hydroxy-1-(3-(4-(tri-fluoromethyl)phenyl)-1,2,4-oxadiazol-5-yl)ethyl)benzamide], the inhibition at 5 µM under setting [2] turned out to be 68%. The inhibition at 25 µM was 86% under setting [3], over 80% under setting [4] and over 80% under setting [1].

`O=C(N[C@@H](CO)c1nc(-c2ccc(C(F)(F)F)cc2)no1)c1ccccc1` [Compound 130, (S)-N-(2-hydroxy-1-(3-(4-(trifluoro-methyl)phenyl)-1,2,4-oxadiazol-5-yl)ethyl)benzamide]: the inhibition at 5 µM under setting [2] is 67%. The inhibition at 25 µM under setting [3] was determined as 85% and the inhibition at 25 µM under setting [1] is over 80%.

Turning to `O=C(c1ccc(Cl)cc1)N1CC[C@H](O)[C@H]1c1nc(-c2ccc(OC(F)(F)F)cc2)no1` [Compound 131, (4-chlorophenyl) ((2S,3S)-3-hydroxy-2-(3-(4-(trifluoro-methoxy)phenyl)-1,2,4-oxadiazol-5-yl)pyrrolidin-1-yl)methanone], under setting [1], the inhibition at 25 µM is 40 to 80%.

On to `COc1ccc(-c2noc([C@@H](NC(=O)c3ccc(Cl)cc3)[C@@H](C)O)n2)cc1` [Compound 132, 4-chloro-N-((1S,2R)-2-hydroxy-1-(3-(4-methoxy-phenyl)-1,2,4-oxadiazol-5-yl)propyl)benzamide], for which the inhibition at 25 µM under setting [4] is over 80% and the inhibition at 25 µM under setting [1] was over 80%.

With `O=C(N[C@@H](CO)c1nc(-c2ccc(C(F)(F)F)cc2)no1)c1ccc(F)cc1` [Compound 133, (S)-4-fluoro-N-(2-hydroxy-1-(3-(4-(trifluoromethyl)phenyl)-1,2,4-oxadiazol-5-yl)ethyl)benzamide], the inhibition at 25 µM was 88% under setting [3] and over 80% under setting [4]. Besides, the “Inhibitory activity ABC evaluation” value (inhibition rate against amyloid fibril formation, final concentration of the compound 25 μM, 25 µM) is “A (80% or more was evaluated as A)”.

For the molecule `O=C(N[C@@H](CO)c1nc(-c2ccc(O)cc2F)no1)c1ccccc1` [Compound 142, N-[(1S)-1-[3-(2-fluoro-4-hydroxyphenyl)-1,2,4-oxadiazol-5-yl]-2-hydroxyethyl]benzamide], under setting [1], the inhibition at 25 µM lay in the range of 40 to 80%.

With `Cc1ccc(-c2noc([C@H](CO)NC(=O)c3ccccc3)n2)cc1` [Compound 143, N-[(1S)-2-hydroxy-1-[3-(4-methylphenyl)-1,2,4-oxadiazol-5-yl]ethyl]benzamide], under setting [1], the inhibition at 25 µM is over 80%.

Turning to `COc1ccc(-c2noc([C@H](CO)NC(=O)c3ccccc3)n2)cc1F` [Compound 144, N-[(1S)-1-[3-(3-fluoro-4-methoxyphenyl)-1,2,4-oxadiazol-5-yl]-2-hydroxyethyl]benzamide], the inhibition at 25 µM under setting [1] is over 80%.

As to `CC(C)c1ccc(-c2noc([C@H](CO)NC(=O)c3ccccc3)n2)cc1` [Compound 145, N-[(1S)-2-hydroxy-1-{3-[4-(propan-2-yl)phenyl]-1,2,4-oxadiazol-5-yl}ethyl]benzamide], the inhibition at 25 µM under setting [1] was in the range of 40 to 80%.

As for `O=C(N[C@@H](CO)c1nc(-c2ccc(O)cc2)no1)c1ccccc1` [Compound 146, N-[(1S)-2-hydroxy-1-[3-(4-hydroxy-phenyl)-1,2,4-oxadiazol-5-yl]ethyl]benzamide], the inhibition at 25 µM by setting is: under setting [3], 87%; under setting [1], over 80%.

`COCCCNC(=O)c1ccc(-c2noc([C@H](CO)NC(=O)c3ccc(F)cc3)n2)cc1` [Compound 147, 4-{5-[(1S)-1-[(4-fluorophenyl) formamido]-2-hydroxyethyl]-1,2,4-oxadiazol-3-yl}-N-(3-methoxypropyl) benzamide]: the inhibition at 25 µM under setting [3] was determined as 53% and the inhibition at 25 µM under setting [1] was in the range of 40 to 80%.

Regarding `COCCCNC(=O)c1ccc(-c2noc([C@H](CO)NC(=O)c3ccccc3)n2)cc1` [Compound 148, 4-[5-[(1S)-2-hydroxy-1-(phenylformamido)ethyl]-1,2,4-oxa-diazol-3-yl)-N-(3-methoxypropyl) benzamide], the inhibition at 25 µM under setting [1] was 40 to 80%.

As to `NC[C@H](NC(=O)c1ccccc1)c1nc(-c2ccc(OC(F)(F)F)cc2)no1` [Compound 149, N-[(1S)-2-amino-1-{3-[4-(trifluoromethoxy)phenyl]-1,2,4-oxa-diazol-5-yl}ethyl] benzamide], the inhibition at 25 µM under setting [1] is under 40%.

On to `CN(C)c1ccc(-c2noc([C@H](CO)NC(=O)c3ccccc3)n2)cc1` [Compound 150, N-[(1S)-1-{3-[4-(dimethylamino)phenyl]-1,2,4-oxadiazol-5-yl}-2-hydroxyethyl] benzamide], for which, under setting [1], the inhibition at 25 µM was over 80%.

For the molecule `O=C(NCC(CO)c1nc(-c2ccc(C(F)(F)F)cc2)no1)c1ccc(F)cc1` (stereo not drawn) [Compound 151, 4-fluoro-N-(3-hydroxy-2-{3-[4-(trifluoro-methyl)phenyl]-1,2,4-oxadiazol-5-yl}propyl)benzamide], the inhibition at 25 µM under setting [1] lay in the range of 40 to 80%.

With `CC(=O)c1ccc(-c2noc([C@H](CO)NC(=O)c3ccccc3)n2)cc1` [Compound 153, N-[(1S)-1-[3-(4-acetylphenyl)-1,2,4-oxadiazol-5-yl]-2-hydroxyethyl] benzamide], the inhibition at 25 µM was 76% under setting [3] and 40 to 80% under setting [1].

Consider `O=C(N[C@@H](CO)c1nc(-c2ccc(OCCO)cc2)no1)c1ccccc1` [Compound 156, N-[(1S)-2-hydroxy-1-{3-[4-(2-hydroxyethoxy)phenyl]-1,2,4-oxadiazol-5-yl}ethyl] benzamide], for which the inhibition at 25 µM reads like this: under setting [3], 74%; under setting [1], 40 to 80%.

For `O=C(N[C@@H](CO)c1nc(-c2ccc(C(F)(F)F)cc2)no1)c1ccc(F)nc1` [Compound 157, 6-fluoro-N-[(1S)-2-hydroxy-1-{3-[4-(trifluoromethyl)phenyl]-1,2,4-oxadiazol-5-yl}ethyl] pyridine-3-carboxamide], the inhibition at 25 µM under setting [1] was over 80%.

As for `O=C(N[C@@H](CO)c1nc(-c2ccc(OCCN3CCOCC3)cc2)no1)c1ccccc1` [Compound 158, N-[(1S)-2-hydroxy-1-(3-{4-[2-(morpholin-4-yl)ethoxy]phenyl}-1,2,4-oxadiazol-5-yl)ethyl] benzamide], the inhibition at 25 µM under setting [1] was 40 to 80%.

Consider `CCN(C)C(=O)Oc1ccc(-c2noc([C@H](CO)NC(=O)c3ccccc3)n2)cc1` [Compound 159], for which the inhibition at 25 µM (read-out: Inhibitory activity ABC evaluation) was under 40%.

Turning to `O=C(N[C@@H](CO)c1nc(-c2ccc(CF)cc2)no1)c1ccc(F)cc1` [Compound 161, 4-fluoro-N-[(1S)-1-{3-[4-(fluoromethyl)phenyl]-1,2,4-oxadiazol-5-yl}-2-hydroxyethyl] benzamide], under setting [1], the inhibition at 25 µM lay within 40 to 80%.

For `O=C(N[C@@H](CO)c1nc(-c2ccc(CF)cc2)no1)c1ccccc1` [Compound 162, N-[(1S)-1-{3-[4-(fluoromethyl)phenyl]-1,2,4-oxadiazol-5-yl}-2-hydroxyethyl] benzamide], the inhibition at 25 µM under setting [1] fell in the range of 40 to 80%.
